Measured values reported in ChEMBL document CHEMBL3217548, “Biological activity and DNA binding studies of 2-substituted benzimidazo[1,2-a]quinolines bearing different amino side chains” (Medchemcomm, 2013).
The source made the active and inactive calls. The calls are words filed in the database; no cut-off is given here.

Experiments:
Calf thymus DNA [1] = assay: Binding affinity to calf thymus DNA assessed as bathochromic shift at 20 uM by UV/visible spectrophotometry; format: nucleic-acid assay; details: Bos taurus
Calf thymus DNA [2] = assay: Binding affinity to calf thymus DNA assessed as hypochromic shift at 20 uM by UV/visible spectrophotometry; format: nucleic-acid assay; details: Bos taurus
[3] = Binding affinity to DNA (unknown origin) at 1 to 5 uM after 15 mins by DNA footprinting assay
Homo sapiens = species on record: Homo sapiens; assay: Inhibition of human DNA topoisomerase 2 assessed as inhibition of DNA cleavage
[4] = biological target: T1, DNA topoisomerase 1 (Homo sapiens) (UniProt P11387); assay: Inhibition of human DNA topoisomerase 1 assessed as inhibition of DNA cleavage
T1 sequence (whole entry): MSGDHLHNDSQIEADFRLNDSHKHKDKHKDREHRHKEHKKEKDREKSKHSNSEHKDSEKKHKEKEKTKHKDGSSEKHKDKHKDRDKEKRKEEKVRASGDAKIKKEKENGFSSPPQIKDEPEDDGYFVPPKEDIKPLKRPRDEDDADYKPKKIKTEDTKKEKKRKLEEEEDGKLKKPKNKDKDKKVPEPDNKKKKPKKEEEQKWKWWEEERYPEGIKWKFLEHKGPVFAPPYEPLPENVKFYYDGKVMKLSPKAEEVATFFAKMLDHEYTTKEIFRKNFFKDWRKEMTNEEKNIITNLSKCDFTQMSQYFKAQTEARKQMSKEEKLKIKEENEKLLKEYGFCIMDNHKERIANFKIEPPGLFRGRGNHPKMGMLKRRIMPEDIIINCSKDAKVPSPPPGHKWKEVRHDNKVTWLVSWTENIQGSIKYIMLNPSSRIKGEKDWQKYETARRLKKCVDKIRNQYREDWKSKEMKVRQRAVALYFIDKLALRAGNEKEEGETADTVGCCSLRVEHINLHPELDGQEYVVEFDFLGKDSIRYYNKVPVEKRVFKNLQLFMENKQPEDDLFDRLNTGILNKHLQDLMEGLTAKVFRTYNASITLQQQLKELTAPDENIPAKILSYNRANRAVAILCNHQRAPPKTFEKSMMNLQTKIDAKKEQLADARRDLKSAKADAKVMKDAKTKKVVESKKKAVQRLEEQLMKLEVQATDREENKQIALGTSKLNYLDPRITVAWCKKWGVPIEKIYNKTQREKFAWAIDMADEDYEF

Escherichia coli [5] = assay: Binding affinity to Escherichia coli pUC19 plasmid assessed as nicked DNA at 0.1 to 5 uM by ethidium bromide staining-based agarose gel electrophoresis
Escherichia coli [6] = assay: Binding affinity to Escherichia coli pUC19 plasmid assessed as induction of topoisomerase1-mediated DNA relaxation at 2 uM incubated for 45 mins prior to topoisomerase1 addition by agarose gel electrophoresis
Calf thymus DNA [7] = assay: Binding affinity to calf thymus DNA assessed as DNA intercalation at 1 to 50 uM by circular dichroism analysis; format: nucleic-acid assay; details: Bos taurus
Calf thymus DNA [8] = assay: Binding affinity to calf thymus DNA assessed as change in melting temperature at 0.5 drug/DNA ratio by spectrophotometry; format: nucleic-acid assay; details: Bos taurus
[9] = Drug uptake in human H460 cell perinuclear region at 10 uM after 2 hrs by fluorescence microscopy; format: ADME, cell-based; details: h460, 2 h
[10] = Drug uptake in human H460 cell cytoplasm at 10 uM after 2 hrs by fluorescence microscopy; format: ADME, cell-based; details: h460, 2 h
HCT-116 [11] = assay: Cell cycle arrest in human HCT116 cells assessed as accumulation at G2/M phase at 5 uM after 48 hrs by propidium iodide staining-based FACS analysis (reference value: 31 +/- 0.1 %); format: functional
HCT-116 [12] = assay: Cell cycle arrest in human HCT116 cells assessed as accumulation at G2/M phase at 0.5 uM after 48 hrs by propidium iodide staining-based FACS analysis (reference value: 31 +/- 0.1 %); format: functional
HCT-116 [13] = assay: Cell cycle arrest in human HCT116 cells assessed as accumulation at G2/M phase at 5 uM after 24 hrs by propidium iodide staining-based FACS analysis (reference value: 28 +/- 1 %); format: functional
HCT-116 [14] = assay: Cell cycle arrest in human HCT116 cells assessed as accumulation at G2/M phase at 0.5 uM after 24 hrs by propidium iodide staining-based FACS analysis (reference value: 28 +/- 1 %); format: functional
HCT-116 [15] = assay: Cell cycle arrest in human HCT116 cells assessed as accumulation at S phase at 5 uM after 48 hrs by propidium iodide staining-based FACS analysis (reference value: 32 +/- 1 %); format: functional
HCT-116 [16] = assay: Cell cycle arrest in human HCT116 cells assessed as accumulation at S phase at 0.5 uM after 48 hrs by propidium iodide staining-based FACS analysis (reference value: 32 +/- 1 %); format: functional
HCT-116 [17] = assay: Cell cycle arrest in human HCT116 cells assessed as accumulation at S phase at 5 uM after 24 hrs by propidium iodide staining-based FACS analysis (reference value: 39 +/- 0.2 %); format: functional
HCT-116 [18] = assay: Cell cycle arrest in human HCT116 cells assessed as accumulation at S phase at 0.5 uM after 24 hrs by propidium iodide staining-based FACS analysis (reference value: 39 +/- 0.2 %); format: functional
HCT-116 [19] = assay: Cell cycle arrest in human HCT116 cells assessed as accumulation at G1 phase at 5 uM after 48 hrs by propidium iodide staining-based FACS analysis (reference value: 37 +/- 2 %); format: functional
HCT-116 [20] = assay: Cell cycle arrest in human HCT116 cells assessed as accumulation at G1 phase at 0.5 uM after 48 hrs by propidium iodide staining-based FACS analysis (reference value: 37 +/- 2 %); format: functional
HCT-116 [21] = assay: Cell cycle arrest in human HCT116 cells assessed as accumulation at G1 phase at 5 uM after 24 hrs by propidium iodide staining-based FACS analysis (reference value: 33 +/- 1 %); format: functional
HCT-116 [22] = assay: Cell cycle arrest in human HCT116 cells assessed as accumulation at G1 phase at 0.5 uM after 24 hrs by propidium iodide staining-based FACS analysis (reference value: 33 +/- 1 %); format: functional
HCT-116 [23] = assay: Cell cycle arrest in human HCT116 cells assessed as accumulation at subG0/G1 phase at 5 uM after 48 hrs by propidium iodide staining-based FACS analysis (reference value: 4 +/- 1 %); format: functional
HCT-116 [24] = assay: Cell cycle arrest in human HCT116 cells assessed as accumulation at subG0/G1 phase at 0.5 uM after 48 hrs by propidium iodide staining-based FACS analysis (reference value: 4 +/- 1 %); format: functional
HCT-116 [25] = assay: Cell cycle arrest in human HCT116 cells assessed as accumulation at subG0/G1 phase at 5 uM after 24 hrs by propidium iodide staining-based FACS analysis (reference value: 4 +/- 1 %); format: functional
HCT-116 [26] = assay: Cell cycle arrest in human HCT116 cells assessed as accumulation at subG0/G1 phase at 0.5 uM after 24 hrs by propidium iodide staining-based FACS analysis (reference value: 4 +/- 1 %); format: functional
MCF7 = assay: Cytotoxicity against human MCF7 cells after 72 hrs by MTT assay; format: functional, cell-based; details: MCF7, 72 h
[27] = Cytotoxicity against human H460 cells after 72 hrs by MTT assay; format: functional, cell-based; details: NCI-H460, 72 h
HCT-116 [28] = assay: Cytotoxicity against human HCT116 cells after 72 hrs by MTT assay; format: functional, cell-based; details: HCT-116, 72 h
DNA = assay: Induction of DNA damage in plasmid DNA in E. coli S30 cell-free system assessed as inhibition of EGFP translation at 50 uM after 1 hr by fluorescence assay

- Activity (Calf thymus DNA [1]): Active
- Activity (Calf thymus DNA [2]): Active
- Activity [3]: Active
- Activity (Homo sapiens): inactive
- Activity [4]: inactive
- Activity (Escherichia coli [5]): Active
- Activity (Escherichia coli [6]): Active
- Activity (Calf thymus DNA [7]): Active
- ΔTm (Calf thymus DNA [8]): 15.4 °C
- Drug uptake [9]: Active
- Drug uptake [10]: Active
Structure (SMILES): C[N+]1(C)CCN(c2ccc3cc(C#N)c4nc5ccccc5n4c3c2)CC1.[I-]
- Activity (HCT-116 [11]): 28%
- Activity (HCT-116 [12]): 31%
- Activity (HCT-116 [13]): 29%
- Activity (HCT-116 [14]): 32%
- Activity (HCT-116 [15]): 29%
- Activity (HCT-116 [16]): 32%
- Activity (HCT-116 [17]): 33%
- Activity (HCT-116 [18]): 36%
- Activity (HCT-116 [19]): 43%
- Activity (HCT-116 [20]): 37%
- Activity (HCT-116 [21]): 38%
- Activity (HCT-116 [22]): 32%
- Activity (HCT-116 [23]): 5%
- Activity (HCT-116 [24]): 6%
- Activity (HCT-116 [25]): 7%
- Activity (HCT-116 [26]): 6%
- IC50 (MCF7): 2.4 µM
- IC50 [27]: 2 µM
- IC50 (HCT-116 [28]): 0.6 µM
- inhibition at 50 µM (DNA): 45%
